{
  "source": "PubChem BioAssay AID2060508",
  "about": "(Molecular Pharmacology Branch, DTP, NCI, 2025);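 note: spheroids exposed to compounds for seven days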;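 for viability, T/C: 100% = DMSO vehicle control viability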",
  "system": "454973-116-R2-J3-PDC spheroids, viability, % test/control",
  "experiment": "Anticancer human tumor 454973-116-R2-J3-PDC patient-derived pancreatic carcinoma cell line growth inhibition [GQUAD]",
  "conditions": "spheroids with HUVEC and MSC; for IC50: curve of first compound; for viability, T/C: stronger effect = lower value",
  "method_in_brief": "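Multi-cell-type spheroids of tumor cells with HUVEC and mesenchymal stem cells, treated with drug combinations. Concentrations descend in half-log steps from near clinical Cmax, or from 10 microM where Cmax is unknown; viability read-out.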",
  "key": {"[1]": {"conditions": "second compound 0.0316 µM, first compound 0.0316 µM"}, "[2]": {"conditions": "second compound 0.0316 µM, first compound 0.1 µM"}, "[3]": {"conditions": "second compound 0.0316 µM, first compound 0.316 µM"}, "[4]": {"conditions": "second compound 0.0316 µM, first compound 1 µM"}, "[5]": {"conditions": "second compound 0.0316 µM, first compound 3.16 µM"}, "[6]": {"conditions": "second compound 0.0316 µM, first compound 10 µM"}, "[7]": {"conditions": "second compound 0.1 µM, first compound 0.0316 µM"}, "[8]": {"conditions": "second compound 0.1 µM, first compound 0.1 µM"}, "[9]": {"conditions": "second compound 0.1 µM, first compound 0.316 µM"}, "[10]": {"conditions": "second compound 0.1 µM, first compound 1 µM"}, "[11]": {"conditions": "second compound 0.1 µM, first compound 3.16 µM"}, "[12]": {"conditions": "second compound 0.1 µM, first compound 10 µM"}, "[13]": {"conditions": "second compound 0.316 µM, first compound 0.0316 µM"}, "[14]": {"conditions": "second compound 0.316 µM, first compound 0.1 µM"}, "[15]": {"conditions": "second compound 0.316 µM, first compound 0.316 µM"}, "[16]": {"conditions": "second compound 0.316 µM, first compound 1 µM"}, "[17]": {"conditions": "second compound 0.316 µM, first compound 3.16 µM"}, "[18]": {"conditions": "second compound 0.316 µM, first compound 10 µM"}, "[19]": {"conditions": "second compound 1 µM, first compound 0.0316 µM"}, "[20]": {"conditions": "second compound 1 µM, first compound 0.1 µM"}, "[21]": {"conditions": "second compound 1 µM, first compound 0.316 µM"}, "[22]": {"conditions": "second compound 1 µM, first compound 1 µM"}, "[23]": {"conditions": "second compound 1 µM, first compound 3.16 µM"}, "[24]": {"conditions": "second compound 1 µM, first compound 10 µM"}, "[25]": {"conditions": "second compound 3.16 µM, first compound 0.0316 µM"}, "[26]": {"conditions": "second compound 3.16 µM, first compound 0.1 µM"}, "[27]": {"conditions": "second compound 3.16 µM, first compound 0.316 µM"}, "[28]": {"conditions": "second compound 3.16 µM, first compound 1 µM"}, "[29]": {"conditions": "second compound 3.16 µM, first compound 3.16 µM"}, "[30]": {"conditions": "second compound 3.16 µM, first compound 10 µM"}, "[31]": {"conditions": "second compound 10 µM, first compound 0.0316 µM"}, "[32]": {"conditions": "second compound 10 µM, first compound 0.1 µM"}, "[33]": {"conditions": "second compound 10 µM, first compound 0.316 µM"}, "[34]": {"conditions": "second compound 10 µM, first compound 1 µM"}, "[35]": {"conditions": "second compound 10 µM, first compound 3.16 µM"}, "[36]": {"conditions": "second compound 10 µM, first compound 10 µM"}},
  "data": [
    {"smiles": "C#Cc1c(F)ccc2cc(O)cc(-c3ncc4c(N5CC6CCC(C5)N6)nc(OCC56CCCN5CC(F)C6)nc4c3F)c12", "note": "(centres undefined) + Cc1[nH]c2ccc(F)cc2c1-c1nc2c3cccnc3c3ncccc3c2[nH]1", "values": [
      {"measurement": "IC50", "setting": "second compound 0.0316 µM", "result": 55.4, "unit": "nM"},
      {"measurement": "IC50", "setting": "second compound 0.1 µM", "result": 72.2, "unit": "nM"},
      {"measurement": "IC50", "setting": "second compound 0.316 µM", "result": 56.2, "unit": "nM"},
      {"measurement": "IC50", "setting": "second compound 1 µM", "result": 57, "unit": "nM"},
      {"measurement": "IC50", "setting": "second compound 3.16 µM", "result": 34.6, "unit": "nM"},
      {"measurement": "IC50", "setting": "second compound 10 µM", "result": "< 31.6", "unit": "nM"},
      {"measurement": "viability, T/C", "setting": "[1]", "result": 59.5, "unit": "%"},
      {"measurement": "viability, T/C", "setting": "[2]", "result": 40.2, "unit": "%"},
      {"measurement": "viability, T/C", "setting": "[3]", "result": 27.5, "unit": "%"},
      {"measurement": "viability, T/C", "setting": "[4]", "result": 25.1, "unit": "%"},
      {"measurement": "viability, T/C", "setting": "[5]", "result": 21.5, "unit": "%"},
      {"measurement": "viability, T/C", "setting": "[6]", "result": 15.5, "unit": "%"},
      {"measurement": "viability, T/C", "setting": "[7]", "result": 63.5, "unit": "%"},
      {"measurement": "viability, T/C", "setting": "[8]", "result": 43.4, "unit": "%"},
      {"measurement": "viability, T/C", "setting": "[9]", "result": 34.5, "unit": "%"},
      {"measurement": "viability, T/C", "setting": "[10]", "result": 24.4, "unit": "%"},
      {"measurement": "viability, T/C", "setting": "[11]", "result": 21.9, "unit": "%"},
      {"measurement": "viability, T/C", "setting": "[12]", "result": 17, "unit": "%"},
      {"measurement": "viability, T/C", "setting": "[13]", "result": 57.2, "unit": "%"},
      {"measurement": "viability, T/C", "setting": "[14]", "result": 45.2, "unit": "%"},
      {"measurement": "viability, T/C", "setting": "[15]", "result": 27.7, "unit": "%"},
      {"measurement": "viability, T/C", "setting": "[16]", "result": 23.9, "unit": "%"},
      {"measurement": "viability, T/C", "setting": "[17]", "result": 29.6, "unit": "%"},
      {"measurement": "viability, T/C", "setting": "[18]", "result": 17.5, "unit": "%"},
      {"measurement": "viability, T/C", "setting": "[19]", "result": 58.6, "unit": "%"},
      {"measurement": "viability, T/C", "setting": "[20]", "result": 41.8, "unit": "%"},
      {"measurement": "viability, T/C", "setting": "[21]", "result": 29.8, "unit": "%"},
      {"measurement": "viability, T/C", "setting": "[22]", "result": 22.9, "unit": "%"},
      {"measurement": "viability, T/C", "setting": "[23]", "result": 17.6, "unit": "%"},
      {"measurement": "viability, T/C", "setting": "[24]", "result": 15.4, "unit": "%"},
      {"measurement": "viability, T/C", "setting": "[25]", "result": 52.1, "unit": "%"},
      {"measurement": "viability, T/C", "setting": "[26]", "result": 35.5, "unit": "%"},
      {"measurement": "viability, T/C", "setting": "[27]", "result": 27.2, "unit": "%"},
      {"measurement": "viability, T/C", "setting": "[28]", "result": 21.1, "unit": "%"},
      {"measurement": "viability, T/C", "setting": "[29]", "result": 19.6, "unit": "%"},
      {"measurement": "viability, T/C", "setting": "[30]", "result": 12.8, "unit": "%"},
      {"measurement": "viability, T/C", "setting": "[31]", "result": 48.1, "unit": "%"},
      {"measurement": "viability, T/C", "setting": "[32]", "result": 36.9, "unit": "%"},
      {"measurement": "viability, T/C", "setting": "[33]", "result": 26.2, "unit": "%"},
      {"measurement": "viability, T/C", "setting": "[34]", "result": 17.6, "unit": "%"},
      {"measurement": "viability, T/C", "setting": "[35]", "result": 16.8, "unit": "%"},
      {"measurement": "viability, T/C", "setting": "[36]", "result": 12.3, "unit": "%"}
    ]},
    {"smiles": "CC(C)(O)C1CCC(Nc2ccc3ncc(-c4cccc(C(F)(F)F)c4)n3n2)CC1", "note": "(centres undefined) + Cc1cnc(CNC(=O)c2c(=O)c3ccc(N4CCCN(C)CC4)nc3n3c2sc2ccccc23)cn1", "values": [
      {"measurement": "IC50", "setting": "second compound 0.0316 µM", "result": 1730, "unit": "nM"},
      {"measurement": "IC50", "setting": "second compound 0.1 µM", "result": 1550, "unit": "nM"},
      {"measurement": "IC50", "setting": "second compound 0.316 µM", "result": 1630, "unit": "nM"},
      {"measurement": "IC50", "setting": "second compound 1 µM", "result": 1740, "unit": "nM"},
      {"measurement": "IC50", "setting": "second compound 3.16 µM", "result": 1360, "unit": "nM"},
      {"measurement": "IC50", "setting": "second compound 10 µM", "result": "< 31.6", "unit": "nM"},
      {"measurement": "viability, T/C", "setting": "[1]", "result": 108, "unit": "%"},
      {"measurement": "viability, T/C", "setting": "[2]", "result": 89.3, "unit": "%"},
      {"measurement": "viability, T/C", "setting": "[3]", "result": 96.5, "unit": "%"},
      {"measurement": "viability, T/C", "setting": "[4]", "result": 75, "unit": "%"},
      {"measurement": "viability, T/C", "setting": "[5]", "result": 21.5, "unit": "%"},
      {"measurement": "viability, T/C", "setting": "[6]", "result": 23.8, "unit": "%"},
      {"measurement": "viability, T/C", "setting": "[7]", "result": 83.3, "unit": "%"},
      {"measurement": "viability, T/C", "setting": "[8]", "result": 83.8, "unit": "%"},
      {"measurement": "viability, T/C", "setting": "[9]", "result": 85.4, "unit": "%"},
      {"measurement": "viability, T/C", "setting": "[10]", "result": 65.4, "unit": "%"},
      {"measurement": "viability, T/C", "setting": "[11]", "result": 22, "unit": "%"},
      {"measurement": "viability, T/C", "setting": "[12]", "result": 27.6, "unit": "%"},
      {"measurement": "viability, T/C", "setting": "[13]", "result": 82.8, "unit": "%"},
      {"measurement": "viability, T/C", "setting": "[14]", "result": 69.2, "unit": "%"},
      {"measurement": "viability, T/C", "setting": "[15]", "result": 76.2, "unit": "%"},
      {"measurement": "viability, T/C", "setting": "[16]", "result": 64.3, "unit": "%"},
      {"measurement": "viability, T/C", "setting": "[17]", "result": 28.9, "unit": "%"},
      {"measurement": "viability, T/C", "setting": "[18]", "result": 32.1, "unit": "%"},
      {"measurement": "viability, T/C", "setting": "[19]", "result": 76.4, "unit": "%"},
      {"measurement": "viability, T/C", "setting": "[20]", "result": 65.6, "unit": "%"},
      {"measurement": "viability, T/C", "setting": "[21]", "result": 65.1, "unit": "%"},
      {"measurement": "viability, T/C", "setting": "[22]", "result": 66.5, "unit": "%"},
      {"measurement": "viability, T/C", "setting": "[23]", "result": 31.9, "unit": "%"},
      {"measurement": "viability, T/C", "setting": "[24]", "result": 32.5, "unit": "%"},
      {"measurement": "viability, T/C", "setting": "[25]", "result": 66.9, "unit": "%"},
      {"measurement": "viability, T/C", "setting": "[26]", "result": 65.2, "unit": "%"},
      {"measurement": "viability, T/C", "setting": "[27]", "result": 63.9, "unit": "%"},
      {"measurement": "viability, T/C", "setting": "[28]", "result": 59.8, "unit": "%"},
      {"measurement": "viability, T/C", "setting": "[29]", "result": 21.3, "unit": "%"},
      {"measurement": "viability, T/C", "setting": "[30]", "result": 25.9, "unit": "%"},
      {"measurement": "viability, T/C", "setting": "[31]", "result": 0.3, "unit": "%"},
      {"measurement": "viability, T/C", "setting": "[32]", "result": 17.6, "unit": "%"},
      {"measurement": "viability, T/C", "setting": "[33]", "result": 49, "unit": "%"},
      {"measurement": "viability, T/C", "setting": "[34]", "result": 0.58, "unit": "%"},
      {"measurement": "viability, T/C", "setting": "[35]", "result": 0.43, "unit": "%"},
      {"measurement": "viability, T/C", "setting": "[36]", "result": 0.23, "unit": "%"}
    ]}
  ]
}
